From article PMC11649115, “In vitro safety evaluation of dopamine D3R antagonist, R-VK4-116, as a potential medication for the treatment of opioid use disorder” (PLOS ONE, 2024)
“And” between values parts separate entries of the source, which are not always exact repeats. Equal entries are not always repeated. Where two headings read alike, the source gives them in different places.

Legend:
CYP2C8 = biological target: T1, CYP2C8 (Homo sapiens, UniProt P10632); assay: CYP inhibition in human liver microsomes; details: human liver microsomes
T1 sequence (P10632 1-490): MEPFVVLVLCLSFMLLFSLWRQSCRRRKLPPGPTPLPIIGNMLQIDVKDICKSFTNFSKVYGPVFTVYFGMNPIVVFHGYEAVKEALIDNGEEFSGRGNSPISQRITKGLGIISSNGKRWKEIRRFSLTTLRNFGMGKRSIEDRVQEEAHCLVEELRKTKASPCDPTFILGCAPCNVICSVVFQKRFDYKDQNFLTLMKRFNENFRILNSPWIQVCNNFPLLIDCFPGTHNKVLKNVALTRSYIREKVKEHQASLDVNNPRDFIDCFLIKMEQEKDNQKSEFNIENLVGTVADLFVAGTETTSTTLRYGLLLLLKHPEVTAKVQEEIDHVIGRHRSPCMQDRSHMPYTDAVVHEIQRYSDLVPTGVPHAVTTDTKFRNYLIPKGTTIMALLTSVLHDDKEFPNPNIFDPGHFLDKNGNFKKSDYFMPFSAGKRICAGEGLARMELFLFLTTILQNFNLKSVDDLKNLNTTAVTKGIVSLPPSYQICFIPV

dog hepatocytes = assay: Metabolic stability in hepatocyte; details: dog hepatocytes
Procedure: (§1) CYP3A4 substrate Midazolam (10 μM) was prepared and incubated in the same manner. […] In addition, in vitro half-life (t1/2, min) and intrinsic clearance (CLint, μl/min/10^6 cells) were calculated [10, 11].

[1] = Metabolic stability in hepatocyte; details: Beagle, dog, hepatocytes in suspension
Procedure: as §1

[2] = test system: 403 non-mutant human kinases; details: screening concentration 1 µM, S-score with % Control <35
Procedure: Briefly, E. coli host derived from the BL21 strain were grown to log-phase and infected with kinase-tagged T7 phage and incubated with shaking at 32°C until lysis. The lysates were centrifuged and filtered to remove cell debris. The remaining kinases were produced in HEK-293 cells and subsequently tagged with DNA for qPCR detection. Streptavidin-coated magnetic beads were treated with biotinylated small molecule ligands to generate affinity resins for kinase assays. The liganded beads were blocked with excess biotin and washed to remove unbound ligand and to reduce non-specific phage binding. […] Selectivity Score (S-score) was a quantitative measure of compound selectivity. […] The binding constants (Kds) were also determined with a standard dose-response curve using the Hill equation and Levenberg-Marquardt algorithm [24, 25].

[3] = parameters: method as in PMID 31526003; details: rats, 10 mg/kg oral dose ref 8; cited from earlier work
CYP1A2 mRNA = assay: CYP induction, mRNA, primary cultured human hepatocytes; type: in vitro ADME; details: read-out: CYP1A2 mRNA Fold Induction (fold of vehicle control)
Source text: Rifampicin as a positive control and solvent (0.1% DMSO) vehicle control were also included. The acceptance criteria for CYP induction was ≥ 2-fold induction for significant CYP activity, while the acceptance criteria for CYP mRNA was ≥ 4-fold for significant CYP induction.

HepG2 cells = assay: Phospholipidosis and steatosis, high content screening; type: cell-based; parameters: key to Cell count, Trend (↑↓) / Nuclear size, Trend (↑↓) / DNA structure, Trend (↑↓) / Phospholipidosis, Trend (↑↓) / Steatosis, Trend (↑↓): ↑: increasing trend of response; ↓: decreasing trend of response
[4] = as above; type: cell-based; parameters: key to Cell count, Trend (↑↓) / Nuclear size, Trend (↑↓) / DNA structure, Trend (↑↓) / Phospholipidosis, Trend (↑↓) / Steatosis, Trend (↑↓): ↑: increasing trend of response; ↓: decreasing trend of response; details: human, HepG2 cells
MATE1 = biological target: T2, MATE1 (Homo sapiens, UniProt Q96FL8); assay: Transporter mediated assay (substrate/inhibitor), MDCK-II cells; type: in vitro ADME
T2 construct: expressed in transfected cells; host or cells: MDCK-II cells
T2 sequence (Q96FL8 1-570): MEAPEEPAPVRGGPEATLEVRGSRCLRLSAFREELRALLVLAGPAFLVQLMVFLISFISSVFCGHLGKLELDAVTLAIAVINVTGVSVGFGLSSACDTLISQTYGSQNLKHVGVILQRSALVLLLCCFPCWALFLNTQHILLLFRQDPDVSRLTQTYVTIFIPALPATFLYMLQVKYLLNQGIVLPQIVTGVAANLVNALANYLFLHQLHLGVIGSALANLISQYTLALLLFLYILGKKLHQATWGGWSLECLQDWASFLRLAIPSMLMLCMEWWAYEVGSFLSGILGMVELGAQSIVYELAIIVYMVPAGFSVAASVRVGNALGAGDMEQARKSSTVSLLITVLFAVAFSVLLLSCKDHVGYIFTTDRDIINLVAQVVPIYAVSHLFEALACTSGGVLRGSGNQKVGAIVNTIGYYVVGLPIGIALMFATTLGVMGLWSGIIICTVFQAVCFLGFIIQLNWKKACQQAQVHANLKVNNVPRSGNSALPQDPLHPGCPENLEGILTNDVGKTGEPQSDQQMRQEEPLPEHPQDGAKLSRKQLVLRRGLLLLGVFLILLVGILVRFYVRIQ
Procedure: The MDCK-II cells were treated to express the transporter of interest. The transport of each probe substrate was determined by radiometric detection (Fig 1 in S1 File). […] For the uptake assay, the net transporter-mediated uptake-rate (V) of the substrate by each SLC transporter was calculated as follows: Transporter–mediatedupdaterate(pmol/min/cm^2)=(Cellularaccumulationincellsexpressingthetransporter)−(Meancellularaccumulationincontrolcells)/Surfacearea×incubationtime
Fold of activity and percent inhibition were determined as follows: Foldofactivity=(Meanuptakerate)transporterexpressingcells/(Meanuptakerate)controlcells Percentinhibition=100−100×(Transport‐mediatedupdaterate)withinhibitor/(Transport‐mediatedupdaterate)vehiclecontrol

[5] = Metabolic stability in liver microsomes; details: rat, pH 7.4
[6] = heat-inactivated liver microsomes

## CCc1cc(Cl)c(OC)c(N2CCN(CC(O)CCNC(=O)c3cc4ccccc4[nH]3)CC2)c1 (stereo not shown) [R-VK4-116, N-(4-(4-(3-chloro-5-ethyl-2-methoxyphenyl)piperazin-1-yl)-3-hydroxybutyl)-1H-indole-2-carboxamide]
CYP2C8; up to 100 μM
  CYP2C8 inhibition: did not inhibit CYP significantly
CYP2C8; human, probe paclitaxel
  activity at 20 min, 0.1 µM: 85.9 ± 18.2%
  activity at 20 min, 0.3 µM: 68.2 ± 2.8%
  activity at 20 min, 1 µM: 70.5 ± 7.1%
  activity at 20 min, 3 µM: 95.7 ± 11.2%
  activity at 20 min, 10 µM: 89.8 ± 19.7%
  activity at 20 min, 30 µM: 75.8 ± 4.5%
  activity at 20 min, 60 µM: 75.3 ± 6.4%
  activity at 20 min, 100 µM: 80.6 ± 15.2%
Dog hepatocytes; 0.5 μM, 0 min
  % remaining Vs T = 0 min: 100.0%
Dog hepatocytes; 0.5 μM, 30 min
  % remaining Vs T = 0 min: 71.2%
Dog hepatocytes; 0.5 μM, 60 min
  % remaining Vs T = 0 min: 61.2%
Dog hepatocytes; 0.5 μM, 90 min
  % remaining Vs T = 0 min: 45.4%
Dog hepatocytes; 0.5 μM, 120 min
  % remaining Vs T = 0 min: 40.1%
Dog hepatocytes; 10 μM, 0 min
  % remaining Vs T = 0 min: 100.0%
Dog hepatocytes; 10 μM, 30 min
  % remaining Vs T = 0 min: 85.3%
Dog hepatocytes; 10 μM, 60 min
  % remaining Vs T = 0 min: 85.5%
Dog hepatocytes; 10 μM, 90 min
  % remaining Vs T = 0 min: 80.3%
Dog hepatocytes; 10 μM, 120 min
  % remaining Vs T = 0 min: 76.4%
[1]
  half-life at 0.5 μM: 1.52 h
  half-life at 10 μM: 5.78 h
  hepatocyte CLint at 0.5 μM: 15.2 µL/min/1e6 cells
  hepatocyte CLint at 10 μM: 4 µL/min/1e6 cells
[2]
  Selectivity score: 0.012
[3]
  Cmax: 454 nM
CYP1A2 mRNA; Lot 336, 0.01 μM
  fold induction at 48 h, 0.01 µM: 1.1
CYP1A2 mRNA; Lot 336, 0.1 μM
  fold induction at 48 h, 0.1 µM: 1.2
CYP1A2 mRNA; Lot 336, 1 μM
  fold induction at 48 h, 1 µM: 1.6
CYP1A2 mRNA; Lot 336, 3 μM
  fold induction at 48 h, 3 µM: 1.9
CYP1A2 mRNA; Lot 336, 5 μM
  fold induction at 48 h, 5 µM: 1.8
CYP1A2 mRNA; Lot 336, 10 μM
  fold induction at 48 h, 10 µM: 1.9
CYP1A2 mRNA; Lot 348B, 0.01 μM
  fold induction at 48 h, 0.01 µM: 1.1
CYP1A2 mRNA; Lot 348B, 0.1 μM
  fold induction at 48 h, 0.1 µM: 1.4
CYP1A2 mRNA; Lot 348B, 1 μM
  fold induction at 48 h, 1 µM: 1.3
CYP1A2 mRNA; Lot 348B, 3 μM
  fold induction at 48 h, 3 µM: 1.5
CYP1A2 mRNA; Lot 348B, 5 μM
  fold induction at 48 h, 5 µM: 1.6
CYP1A2 mRNA; Lot 348B, 10 μM
  fold induction at 48 h, 10 µM: 1.5
CYP1A2 mRNA; Lot 399, 0.01 μM
  fold induction at 48 h, 0.01 µM: 1.6
CYP1A2 mRNA; Lot 399, 0.1 μM
  fold induction at 48 h, 0.1 µM: 1.8
CYP1A2 mRNA; Lot 399, 1 μM
  fold induction at 48 h, 1 µM: 1.7
CYP1A2 mRNA; Lot 399, 3 μM
  fold induction at 48 h, 3 µM: 1.9
CYP1A2 mRNA; Lot 399, 5 μM
  fold induction at 48 h, 5 µM: 1.6
CYP1A2 mRNA; Lot 399, 10 μM
  fold induction at 48 h, 10 µM: 1.6
HepG2 cells
  Phospholipidosis, Trend (↑↓): ↑
  Steatosis, Trend (↑↓): ↑
HepG2 cells; (NS) = not statistically significant
  Steatosis, MEC: 14.2 μM and 14.2 (NS) μM
[4]; # AC50 greater than the maximum surviving concentration, (NS) = not statistically significant, read-out: Steatosis, AC50
  AC50: > 100 µM
[4]; read-out: Cell count, AC50
  AC50: > 100 µM
[4]; read-out: DNA structure, AC50
  AC50: > 100 µM
[4]; read-out: Nuclear size, AC50
  AC50: > 100 µM
[4]; read-out: Phospholipidosis, AC50
  AC50: 10.7 µM
MATE1; MATE1, 1 μM, transporter cells vs control cells
  fold difference in mean uptake rate (substrate test): < 2 fold
MATE1; human, polarized monolayer of MDCK-II cells expressing MATE1, MATE1, 0.1% BSA, 10 μM
  inhibition at 10 µM: 19.4 ± 7.57%
[5]; [6]
  remaining at 0 h, 1 μM: 100%
  remaining at 0 h, 10 μM: 100%
  remaining at 2 h, 1 μM: 94.9%
  remaining at 2 h, 10 μM: 95.4%
[5]; liver microsomes
  remaining at 0 h, 1 μM: 100%
  remaining at 0 h, 10 μM: 100%
  remaining at 0.5 h, 1 μM: 79.4%
  remaining at 0.5 h, 10 μM: 87.1%
  remaining at 1 h, 1 μM: 56.8%
  remaining at 1 h, 10 μM: 79.7%
  remaining at 1.5 h, 1 μM: 45.5%
  remaining at 1.5 h, 10 μM: 73.3%
  remaining at 2 h, 1 μM: 37.5%
  remaining at 2 h, 10 μM: 69.4%
